Experimental data as given in patent US8802856B2, “Quaternary ammonium diphenylmethyl compounds useful as muscarinic receptor antagonists” (Theravance Biopharma R&D IP, LLC, priority 2007, dated 2014).
pKi: −log10 of the molar value.

Experiments:
[1] = target: T1, hM3 muscarinic receptor subtype (Homo sapiens, UniProt P20309); assay: Radioligand binding assay on muscarinic receptor subtypes ([3H]-NMS displacement)
T1 construct: expressed in transfected cells; crude membranes prepared in house
Method: CHO cell lines stably expressing cloned human hM1, hM2, hM3 and hM4 muscarinic receptor subtypes, respectively, were grown to near confluency in medium consisting of HAM's F-12 supplemented with 10% FBS and 250 μg/mL Geneticin. The cells were grown in a 5% CO2, 37° C. incubator and lifted with 2 mM EDTA in dPBS. Cells were collected by 5 minute centrifugation at 650×g, and cell pellets were either stored frozen at −80° C. or membranes were prepared immediately. For membrane preparation, cell pellets were resuspended in lysis buffer and homogenized with a Polytron PT-2100 tissue disrupter (Kinematica AG; 20 seconds×2 bursts). Crude membranes were centrifuged at 40,000×g for 15 minutes at 4° C. […] The protein concentration of the membrane suspension was determined by the method described in Lowry, O. et al., Journal of Biochemistry 193:265 (1951). […]
Radioligand binding assays were performed in 96-well microtiter plates in a total assay volume of […]. […] Filter plates were rinsed three times with wash buffer (10 mM HEPES) to remove unbound radioactivity. […] The plates were then counted in a PerkinElmer Topcount liquid scintillation counter (PerkinElmer Inc., Wellesley, Mass.). Binding data were analyzed by nonlinear regression analysis with the GraphPad Prism Software package (GraphPad Software, Inc., San Diego, Calif.) using the one-site competition model. […]

MCh response = assay: Rat Einthoven assay (bronchoprotection); format: in vivo; settings: inhalation; for ID50 (bronchoprotection): 1.5 hrs post-dose
Method: All test compounds are diluted in sterile water and are dosed via the inhalation route (IH). The rats (Sprague-Dawley, male, 250-350 g) are exposed to the aerosol generated from an LC Star Nebulizer Set and driven by a mixture of gases (5% CO2/95% atmospheric air). Each test compound solution is nebulized over a 10 minute time period in a pie shaped dosing chamber capable of holding six rats. At predetermined time points after inhalation of compound, the Einthoven assay is performed.
Thirty minutes prior to the start of pulmonary evaluation, the animals are anesthetized with inactin (thiobutabarbital, 120 mg/kg IP). The jugular vein is catheterized with saline filled polyethylene catheters (PE-50) and used to infuse MCh. The trachea is then dissected and cannulated with a 14G needle and used for rat ventilation during pulmonary evaluation. Once surgery is complete, rats are ventilated using a piston respirator set at a stroke volume of 1 ml/100 g body weight but not exceeding 2.5 ml volume, and at a rate of 90 strokes per minute.
The changes in pressure that occur with each breath are measured. Baseline values are collected for at least 2.5 minutes then rats are challenged non-cumulatively with 2-fold incremental increases of the bronchoconstrictor MCh (5, 10, 20, 40 and 80 μg/ml). The MCh is infused for 2.5 minutes from a syringe pump at a rate of 2 mL/kg/min. The animals are euthanized upon completion of the studies.
Changes in ventilation pressure (cm H2O) in treated animals are expressed as % inhibition of MCh response relative to control animals.
Standard muscarinic antagonists were evaluated in the rat Einthoven assay 1.5 hrs post-dose.
Standards tiotropium and ipratropium were also evaluated 24 hr and/or 6 hr post-dose in the rat Einthoven assay. […] The observed loss of activity at this time point (6 hr) is consistent with its relatively short duration of action in the clinic.

[2] = tested on: pilocarpine-induced salivation; assay: Rat antisialagogue assay; format: in vivo; settings: evaluated at 1, 6, and 24 hr post-dose
Method: Rats (Sprague-Dawley, male, 250-350 g) are dosed, anesthetized and cannulated as described for Assay 3. At predetermined time points and after surgery, animals are placed on their dorsal side at a 200 incline with their head in a downward slope. A pre-weighed gauze pad is inserted in the animal's mouth and the muscarinic agonist pilocarpine (PILO) (3 mg/kg, iv.) is administered. Saliva produced during 10 minutes post-PILO is measured gravimetrically by determining the weight of the gauze pad before and after PILO. Antisialagogue effects are expressed as % inhibition of salivation relative to control animals.
The rat antisialagogue assay was developed to assess systemic exposure and calculate the lung selectivity index (LSI) of test compounds. The standard, tiotropium, was evaluated in this model at 1, 6, and 24 hr post-dose. […] This finding is consistent with the peak effects observed in the Einthoven assay.
This model is a modified version of the procedure described in Rechter, “Estimation of anticholinergic drug effects in mice by antagonism against pilocarpine-induced salivation” Ata Pharmacol Toxicol 24:243-254 (1996). The mean weight of saliva in vehicle-treated animals, at each pre-treatment time, is calculated and used to compute % inhibition of salivation, at the corresponding pre-treatment time, at each dose.

T1 sequence (P20309 whole entry): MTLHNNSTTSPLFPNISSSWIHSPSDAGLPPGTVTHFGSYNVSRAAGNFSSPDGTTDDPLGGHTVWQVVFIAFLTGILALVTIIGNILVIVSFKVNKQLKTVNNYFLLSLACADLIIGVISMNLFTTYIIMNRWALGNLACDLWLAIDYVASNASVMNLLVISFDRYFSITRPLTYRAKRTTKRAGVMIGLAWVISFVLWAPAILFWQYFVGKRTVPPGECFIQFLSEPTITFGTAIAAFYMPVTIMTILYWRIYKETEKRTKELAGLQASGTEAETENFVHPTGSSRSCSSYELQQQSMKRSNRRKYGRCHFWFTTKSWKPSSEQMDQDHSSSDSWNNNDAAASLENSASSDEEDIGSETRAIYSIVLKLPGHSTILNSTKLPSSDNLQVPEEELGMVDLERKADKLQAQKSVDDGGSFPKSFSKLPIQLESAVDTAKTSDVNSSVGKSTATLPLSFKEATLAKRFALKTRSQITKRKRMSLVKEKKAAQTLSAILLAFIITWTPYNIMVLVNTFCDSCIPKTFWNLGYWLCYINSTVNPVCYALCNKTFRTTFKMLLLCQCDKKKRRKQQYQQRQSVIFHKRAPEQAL

C[N+]1(CCCSc2ccccc2)CC[C@@H](C(C(N)=O)(c2ccccc2)c2ccccc2)C1 (stereo partly drawn) [Example 2, (S)-3-(Carbamoyldiphenylmethyl)-1-methyl-1-(3-phenylsulfanylpropyl)pyrrolidinium] gave a pKi [1] of over 9.30.
In the case of C[N+]1(C)CCC(OC(=O)C(O)(c2ccccc2)C2CCCC2)C1 (stereo not shown) [glycopyrrolate], the “ID50 (bronchoprotection)” value (MCh response) was 15 µg/mL.
CC(C)[N+]1(C)[C@@H]2CC[C@H]1C[C@@H](OC(=O)C(CO)c1ccccc1)C2 (stereo partly shown) [ipratropium] was tested, and the “fold less potent 6-hr post-dose compared to 1.5 hr potency” value (MCh response; 10 and 30 μg/ml) was “about 3 fold” and the “ID50 (bronchoprotection)” value (MCh response) was 4.4 µg/mL.
C[N+]1(C)[C@@H]2C[C@@H](OC(=O)C(O)(c3cccs3)c3cccs3)C[C@H]1[C@@H]1O[C@@H]12 [tiotropium] was tested, and the “6 hr versus 24 hr potency values” (MCh response) was “not significantly different”, the “fold more potent at 6 hr and 24 hr compared to 1.5 hr potency” value (MCh response) was “about 2 fold” and the onset of effect (MCh response) was “slow onset of effect”. The “time of peak bronchoprotection post-dose” value (MCh response) was 6 h, the “ID50 (bronchoprotection)” value (MCh response) was 6 µg/mL and the “time post dose at which most potent at inhibiting pilocarpine-induced salivation” value [2] was 6 h.
